Data from PMC8705409, “Synthesis of sp^2-Iminosugar Selenoglycolipids as Multitarget Drug Candidates with Antiproliferative, Leishmanicidal and Anti-Inflammatory Properties” (Molecules, 2021).
“Also recorded” adds a separate entry of the source. Read-outs that look alike come from different tables or passages of the source.

Tests used:
[1] = system: human solid tumor cell lines A549, SW1573, HBL-100, T-47D, HeLa, WiDr; parameters: method as in PMID 28728108; conditions: same assay; read-out: GI50 of reference agent in the same assay; cited from earlier work
[2] = system: T-47D (breast) human solid tumor cell line; assay: Antiproliferative SRB assay (HTS), T-47D; format: cell-based; conditions: T47D, 48 h
Procedure: (§1) All reagents were used as purchased from commercial suppliers without further purification. The human solid tumor cell lines used in this study were: A549, SW1573 (lung), HBL-100, T-47D (breast), HeLa (cervix) and WiDr (colon). These cell lines were a kind gift from Prof. G.J. Peters (VU Medical Center, Amsterdam, The Netherlands).
(§2) Cells were inoculated onto 96-well microtiter plates in a volume of 100 μL per well at densities of 2500 (A549, HBL-100, HeLa, and SW1573) and 5000 (T-47D and WiDr) cells per well, based on their doubling times. Compounds were initially dissolved in DMSO at 400 times the desired final maximum test concentration. Control cells were exposed to an equivalent concentration of DMSO (0.25% v/v, negative control). Each agent was tested in triplicate at different dilutions in the range of 1–100 μM. The drug treatment started on day 1 after plating. Drug incubation times were 48 h, after which cells were precipitated with 25 μL ice-cold TCA (50% w/v) and fixed for 60 min at 4 °C. Then the SRB assay was performed. The optical density (OD) of each well was measured at 530 nm, using BioTek’s PowerWave XS Absorbance Microplate Reader. Values were corrected for background OD from wells only containing medium. The antiproliferative activity for each compound, expressed as GI50 values, was calculated according to NCI formulas.

[3] = system: human solid tumor cell lines A549, SW1573, HBL-100, T-47D, HeLa, WiDr; assay: Antiproliferative SRB assay (HTS), whole panel of six cell lines; format: cell-based; conditions: for GI50: Homo sapiens, range over the six tumor cell lines, read-out: GI50 against all the cell lines tested
Procedure: as §1, §2

[4] = Cellular toxicity, MTT assay, THP-1; format: cell-based; conditions: human, maximal concentration 200 µM, read-out: EC50 THP-1 Cell Line (cytotoxicity)
Procedure: (§3) Human myelomonocytic cell line THP-1 was grown at 37 °C and 5% CO2 in RPMI-1640 supplemented with 10% iFBS, 2 mM […], 100 U/mL penicillin and 100 μg/mL streptomycin. 3 × 10^4 cells/well in 96-well plates were differentiated to macrophages with 20 ng/mL of PMA treatment for 48 h followed by 24 h of culture in fresh medium. MRC5 cells were grown at 37 °C and 5% CO2 in DMEM complete media. 4000 cells/well in 96-well plates were incubated for 24 h at 37 °C and 5% CO2.
(§4) Cellular toxicity of all compounds was determined using the colorimetric MTT-based assay after incubation at 37 °C for 72 h in the presence of increasing concentrations of compounds (final maximal concentrations 200 µM). The results are expressed as EC50 values, as the concentration of the compound that reduce cell growth by 50% versus untreated control cells. Assays were performed in triplicate.

[5] = system: intracellular amastigotes of Leishmania donovani HU3; assay: Susceptibility of intracellular Leishmania amastigotes (luciferase) in THP-1 macrophages; format: cell-based; conditions: L. donovani HU3 in macrophage-differentiated THP-1, 72 h, threshold 20 μM
Procedure: Macrophage-differentiated-THP-1 cells, which are considered a suitable model for human macrophages, were plated at a density of 3 × 10^4 macrophages/well in 96-well white polystyrene microplates, and were infected at a macrophage/parasite ratio of 1:10 with L. donovani HU3 promastigotes. 24 h after infection at 35 °C and 5% CO2, extracellular parasites were removed by washing with serum-free medium. Infected cell cultures were then incubated at different compound concentrations in RPMI 1640 medium plus 10% iFBS at 37 °C with 5% CO2 for 72 h. To determine the susceptibility of L. donovani-LUC amastigotes, infected macrophages maintained in 96-well plates were lysed and then luminescence intensity was measured as indicative of the intracellular parasite growth, using the Luciferase Assay System Kit (Promega, Madison, WI, USA) according to the instructions of the supplier.

[6] = system: HeLa (cervix) human solid tumor cell line; assay: Antiproliferative SRB assay (HTS), HeLa; format: cell-based; conditions: 48 h
Procedure: as §1, §2

[7] = Cellular toxicity, MTT assay, MRC-5; format: cell-based; conditions: human, maximal concentration 200 µM, read-out: EC50 MRC-5 Cell Line (cytotoxicity)
Procedure: as §3, §4

[8] = system: A549 (lung) human solid tumor cell line; assay: Antiproliferative SRB assay (HTS), A549; format: cell-based; conditions: 48 h
Procedure: as §1, §2

[9] = system: SW1573 (lung) human solid tumor cell line; assay: Antiproliferative SRB assay (HTS), SW1573; format: cell-based; conditions: 48 h
Procedure: as §1, §2

[10] = system: WiDr (colon) human solid tumor cell line; assay: Antiproliferative SRB assay (HTS), WiDr; format: cell-based; conditions: 48 h
Procedure: as §1, §2

[11] = system: HBL-100 (breast) human solid tumor cell line; assay: Antiproliferative SRB assay (HTS), HBL-100; format: cell-based; conditions: 48 h
Procedure: as §1, §2

[12] = system: nitrite production in Bv.2 microglial cells; assay: Nitrite production in LPS-stimulated Bv.2 cells (Griess method); format: cell-based, mouse; conditions: LPS 200 ng/mL, 24 h
Procedure: (§5) Mouse microglia Bv.2 cell line was supplied by Dr. M.L. Nieto (IBGM, Valladolid, Spain). Bv.2 cells were cultured at 37 °C in a humidified atmosphere with 5% CO2 in RPMI supplemented with 10% (v/v) heat-inactivated FBS, 1% (v/v) penicillin/streptomycin (Sigma) and 2 mM L-glutamine (Gibco, Carlsbad, CA, USA). Cells were grown up to 70% confluence and then washed twice with PBS and further cultured in serum-free medium and stimulated with LPS (200 ng/mL) with or without 14/10 (0.1–50 µM) for 24 h.
Nitrite levels were measured by using the Griess method. Briefly, nitrites turn into a pink compound in contact with an acid solution containing 1% sulphanilamide and 0.1% N-(1-naphthyl)ethylenediamine (NEDA), and can be quantified by a colorimetric method at 540 nm in a microplate reader (Versamax Tunable Microplate reader, Molecular Devices, Sunnyvaley, CA, USA).

[13] = system: arginase-1 expression in Bv.2 microglial cells; assay: Arginase-1 levels (Western blot); format: cell-based, mouse; conditions: Bv.2 cells, absence or presence of LPS 200 ng/mL; 10 at 10 μM, 14 at 50 μM
Procedure: as §5
(§6) Bv.2 microglial cells were homogenized in lysis buffer containing 50 mM Tris-HCl, pH 7.4, 150 mM NaCl, 1 mM Na3VO4, 1 mM NaF, 1 mM EGTA, […] and 0.25% (w/v) sodium deoxycholate, supplemented with protease inhibitors (10 µg/mL leupeptin, 10 µg/mL aprotinin, and 100 µg/mL phenylmethylsulphonyl fluoride). All debris was removed by centrifugation at 14,000× g for 10 min at 4 °C and protein concentration was quantified using the Bio-Rad protein assay with BSA as a standard. Equivalent amounts of protein were resolved using denaturing sodium dodecyl sulphate-polyacrylamide gel electrophoresis (SDS-PAGE), followed by transfer to PVDF membranes (Bio-Rad). […]
(§7) Densitometry of the Western blots was performed using the ImageJ program. […] Data were analyzed by one-way ANOVA followed by Bonferroni t-test or by paired t-test when comparisons were among two groups. […]

Bv.2 microglia cells = assay: Cellular viability by crystal violet staining; format: cell-based, mouse; conditions: Bv.2 cells, 24 h, different concentrations
Procedure: as §5
After cell treatments, the medium was discarded, and the remaining viable adherent cells were stained with crystal violet (0.2% w/v in 2% ethanol) for 20 min. After this time, plates were rinsed with tap water and allowed to dry, and 1% SDS was added to solubilize them. The absorbance of each plate was read spectrophotometrically at 560 nm.

[14] = system: iNOS expression in Bv.2 microglial cells; assay: LPS-induced iNOS protein expression (Western blot); format: cell-based, mouse; conditions: Bv.2 cells, LPS 200 ng/mL
Procedure: as §5, §6, §7

[15] = THP-1 cells differentiated to macrophages with PMA

Compound | GI50 [1] [µM] | GI50 [2] [µM] | antiproliferative activity ([3]; panel of six tumor cell lines) | EC50 at 72 h [4] [µM] | EC50 [5] [µM] | GI50 [6] [µM] | EC50 at 72 h [7] [µM] | GI50 [8] [µM] | GI50 [9] [µM] | GI50 [10] [µM] | GI50 [11] [µM] | GI50 [3] [µM] | concentration at which nitrite production reached basal level [12] [µM] | induction of arginase-1 [13] | effect on cellular viability (Bv.2 microglia cells) | effect on LPS-elicited enhancement of iNOS ([14]; compound at 10 μM) | EC50 at 72 h [4, 15] [µM] | EC50 at 72 h ([7]; MRC-5 cells) [µM] | iNOS increase remaining after treatment (LPS alone 20-fold) ([14]; compound at 50 μM (five-fold higher concentration))
O=c1[nH]cc(F)c(=O)[nH]1 [Compound 5-FU, 5-fluorouracyl] | 5 to 50 |  |  |  |  |  |  |  |  |  |  |  |  |  |  |  |  |  | 
O=C1OC[C@@H]2[C@@H](O)[C@H](O)[C@@H](O)[C@@H]([Se]c3ccccc3)N12 [Compound 8, (1R)-1-Phenylseleno-5N,6O-oxomethylidenenojirimycin] |  | > 100 | lack of activity; also recorded: inactive | > 200 | > 20 | > 100 | 172 ± 27 | > 100 | > 100 | > 100 | > 100 |  |  |  |  |  |  |  | 
CCCCCCCC[Se][C@@H]1[C@H](O)[C@@H](O)[C@H](O)[C@H]2COC(=O)N21 [Compound 9, (1R)-1-Octylseleno-5N,6O-oxomethylidenenojirimycin] |  | 71 |  | > 200 | > 20 | 49 | 94.3 ± 4.95 | 36 | > 100 | 64 | > 100 | ≥ 36 |  |  |  |  |  |  | 
CCCCCCCCCCCC[Se][C@@H]1[C@H](O)[C@@H](O)[C@H](O)[C@H]2COC(=O)N21 [Compound 10, (1R)-1-Dodecylseleno-5N,6O-oxomethylidenenojirimycin] |  | 21 |  | 84.25 ± 0.06 | 13.4 ± 1.63 | 22 | 31.2 ± 1.61 | 18 | 28 | 22 | 24 | 16 to 28 | 10 | direct effect on the induction of arginase-1 | none of the concentrations used induced a negative effect | fully abrogated |  |  | 
CCCCCCCCN[C@@H]1[C@H](O)[C@@H](O)[C@H](O)[C@H]2COC(=O)N21 [Compound 11, (1S)-1-amino-N-octyl-5N,6O-oxomethylidene-1-deoxynojirimycin] |  | > 100 |  |  | > 20 | > 100 |  | > 100 | > 100 | > 100 | > 100 | > 100 |  |  |  |  | 209 ± 10.3 | 155 ± 5.3 | 
CCCCCCCCCCCCN[C@@H]1[C@H](O)[C@@H](O)[C@H](O)[C@H]2COC(=O)N21 [Compound 12, (1S)-1-Amino-N-dodecyl-5N,6O-oxomethylidene-1-deoxynojirimycin] |  | 23 |  |  | > 20 | 23 |  | 18 | 30 | 22 | 23 | 18 to 30 |  |  |  |  | 122 ± 13.3 | 49.6 ± 4.2 | 
CCCCCCCCS[C@@H]1[C@H](O)[C@@H](O)[C@H](O)[C@H]2COC(=O)N21 [Compound 13, (1R)-1-octylthio-5N,6O-oxomethylidenenojirimycin] |  | 95 |  |  | > 20 | 92 |  | 58 | > 100 | 89 | 73 | ≥ 36 |  |  |  |  | 122 ± 5.79 | 58.1 ± 12.6 | 
CCCCCCCCCCCCS[C@@H]1[C@H](O)[C@@H](O)[C@H](O)[C@H]2COC(=O)N21 [Compound 14, (1R)-1-dodecylthio-5N,6O-oxomethylidenenojirimycin] |  | 18 |  |  | > 20 | 17 |  | 16 | 18 | 18 | 17 | 16 to 28 | 50 | did not induce arginase-1 expression | none of the concentrations used induced a negative effect |  | 70.5 ± 3.75 | 43.1 ± 9.83 | about 8 fold
CCCCCCCCCCCCCCCCOP(=O)([O-])OCC[N+](C)(C)C [Miltefosine, reference compound] |  |  |  |  | 0.44 ± 0.08 |  |  |  |  |  |  |  |  |  |  |  | 26.9 ± 3.08 | 57.6 ± 6.38 | 
